≈ marks a conversion by molar mass, not a printed value. Where “and” joins values, the source holds several entries; their conditions need not be identical. Identical values can stand only once. Like-named read-outs stand apart in the source and are kept apart here.
How the values were obtained:
[1] = test system: SD rats; test: Acute oral toxicity test, single oral fixed-dose procedure; type: in vivo; settings: single oral dose 500 mg/kg
Procedure: Materials: the test agent 98% sulfoxamyl technical, batch number 20230708-1, was provided by Ningxia Hugerise Chemical Co., Ltd. Experimental animals: SPF-grade SD rats, half male and half female, weighing 180 g to 220 g, were provided by Jinan Pengyue Experimental Animal Breeding Co., Ltd., license number SCXK (Lu) 20190003. Rearing environment: the rats were housed in an SPF-grade animal room with free access to water and food, a temperature of 20° C. to 25° C., a humidity of 40% to 60%, and a 12 h/12 h light cycle. Feed: conventional pellet feed was provided by Jinan Pengyue Experimental Animal Breeding Co., Ltd.
The test was conducted in accordance with “Toxicological test methods of pesticides for registration, GB15670.5-2017”, “Acute toxicity test, GB15193.3-2003” and relevant acute toxicity research data.
Methods: a single oral fixed-dose procedure was conducted to preliminarily explore the toxic dose range of sulfoxamyl. LD50 and confidence limits were calculated by using the probability unit method (Bliss method). SD rats were randomly divided into 5 groups, 10 rats in each group, half of them were male and half were female. […] The common ratio value among each dose group was 0.75. After a single oral administration, the mortality rate of the experimental animals was recorded within 24 h and 14 days after administration, while the general condition of the animals was observed, and the food intake and body weight changes were recorded.

[2] = test system: Meloidogyne incognita; test: Indoor toxicity test against Meloidogyne incognita second-instar larvae (J2); settings: for LC50 / mortality at 50 µg/mL / mortality at 100 µg/mL / mortality at 400 µg/mL / mortality at 200 µg/mL / mortality at 25 µg/mL: Meloidogyne incognita
Procedure: Materials: the tested nematodes were collected from three different areas, namely cucumber crops in Dawenkou Town, Tai'an City, Shandong Province, and were all identified as southern root-knot nematodes (Meloidogyne incognita). The diseased roots were washed, cut into small sections of 0.5 cm to 1 cm, rinsed in 1% NaClO solution for about 30 s to 60 s, and rinsed with 200-mesh and 500-mesh sieves to collect nematode eggs for later use. The collected eggs were incubated at 25° C. using the Bayman funnel method and the second-instar larvae were collected 1 time per 24 h to ensure that the second-instar larvae selected each time were fresh and of consistent vitality.
The agent was 98% sulfoxamyl technical, and the comparison agents were 96% oxamyl technical and 87% fosthiazate technical.
The preparation for the agent was in accordance with the provisions for preparation of the liquid medicine in the Agricultural Industry Standard of the People's Republic of China NYT 1833.1-2009 “Guideline for laboratory bioassay of pesticides”, as shown in Table 6.
Methods: according to the experimental plan, the test agent was diluted to different mass concentrations, and 0.5 mL of the agent solution and 0.5 mL of the nematode solution (containing about 100 nematodes) were added into a 24-well cell culture plate. The treatment with each concentration of the agent was repeated 4 times, and auxiliary agent control and blank control were also conducted. […]

[3] = test system: Meloidogyne incognita eggs; test: Inhibitory effect on hatching of Meloidogyne incognita eggs; type: in vivo; settings: 7 d
[4] = Meloidogyne incognita, 168 h, egg hatching

## CNC(=O)O/N=C(\SC)C(=O)N(C)C [Oxamyl, N,N-dimethyl-2-[[[(methylamino)carbonyl]oxy]imino]-2-(methylthio)acetamide]
[1]
  Death count: 6/6
  Main clinical symptom: All rats died within 5 min
[2]; 25 mg/L, 24 h
  Corrected mortality: 6.89% and 2.76% and 3.40% and 3.65%
  Mortality: 8.04% and 3.96% and 4.59% and 4.84%
[2]; 25 mg/L, 48 h
  Corrected mortality: 12.13% and 16.63% and 6.92% and 6.73%
  Death count: 15 and 18 and 9 and 10
  Mortality: 13.39% and 17.82% and 8.26% and 8.06%
[2]; 25 mg/L, 72 h
  Corrected mortality: 23.34% and 15.88% and 15.37%
  Death count: 20 and 25 and 19 and 21
  Mortality: 24.75% and 17.43% and 16.94%
[2]; 50 mg/L, 24 h
  Corrected mortality: 29.73% and 26.88% and 16.90%
  Mortality: 30.60% and 27.78% and 17.92%
[2]; 50 mg/L, 48 h
  Corrected mortality: 44.73% and 39.88% and 31.09%
  Mortality: 45.52% and 40.74% and 32.08%
[2]; 50 mg/L, 72 h
  Corrected mortality: 55.90% and 59.44% and 45.22%
  Death count: 41 and 76 and 65 and 49
  Mortality: 56.72% and 60.19% and 46.23%
[2]; 100 mg/L, 24 h
  Corrected mortality: 48.91% and 58.66% and 60.23%
  Death count: 74 and 54 and 71 and 68
  Mortality: 49.54% and 59.17% and 60.71%
[2]; 100 mg/L, 48 h
  Corrected mortality: 76.73% and 76.33% and 80.98%
  Death count: 90 and 84 and 92 and 91
  Mortality: 77.06% and 76.67% and 81.25%
[2]; 100 mg/L, 72 h
  Corrected mortality: 75.93% and 81.31% and 83.87% and 97.27%
  Death count: 97 and 89 and 101 and 109
  Mortality: 76.38% and 81.65% and 84.17% and 97.32%
[2]; 200 mg/L, 24 h
  Corrected mortality: 69.90% and 86.37% and 84.57% and 94.67%
  Death count: 78 and 90 and 89
  Mortality: 70.27% and 86.54% and 84.76% and 94.74%
[2]; 200 mg/L, 48 h
  Corrected mortality: 90.24% and 92.27% and 97.86%
  Death count: 104 and 94 and 97 and 93
  Mortality: 90.38% and 92.38% and 97.89%
[2]; 200 mg/L, 72 h
  Corrected mortality: 94.12% and 94.18% and 98.93%
  Death count: 108 and 98 and 99 and 94
  Mortality: 94.23% and 94.29% and 98.95%
[2]; 400 mg/L, 24 h
  Death count: 99 and 101 and 117 and 112
[2]; 400 mg/L, 48 h
  Death count: 101 and 108 and 119 and 117
[2]; 400 mg/L, 72 h
  Death count: 103 and 110 and 120 and 118
[2]; 24 h
  LC90: 273.89 µg/mL (≈ 1250 µM)
  LC50: 94.8 µg/mL (≈ 432 µM)
[2]; 48 h
  LC90: 181.92 µg/mL (≈ 830 µM)
  LC50: 64.4 µg/mL (≈ 294 µM)
[2]; 72 h
  LC90: 131.82 µg/mL (≈ 601 µM)
  LC50: 49.6 µg/mL (≈ 226 µM)
[2]; 24 h, 50 mg/L
  mortality at 50 µg/mL: 23.8%
[2]; 24 h, 100 mg/L
  mortality at 100 µg/mL: 58.3%
[2]; 24 h, 400 mg/L
  mortality at 400 µg/mL: 96.1%
[2]; 24 h, read-out: Corrected mortality, 50 mg/L, 24 h
  mortality at 50 µg/mL: 22.8%
[2]; 24 h, read-out: Corrected mortality, 100 mg/L, 24 h
  mortality at 100 µg/mL: 57.8%
[2]; 24 h, read-out: Corrected mortality, 400 mg/L, 24 h
  mortality at 400 µg/mL: 96.1%
[2]; 48 h, 50 mg/L
  mortality at 50 µg/mL: 29.7%
[2]; 48 h, 100 mg/L
  mortality at 100 µg/mL: 70.9%
[2]; 48 h, 200 mg/L
  mortality at 200 µg/mL: 93.7%
[2]; 48 h, 400 mg/L
  mortality at 400 µg/mL: 98.1%
[2]; 48 h, read-out: Corrected mortality, 50 mg/L, 48 h
  mortality at 50 µg/mL: 28.7%
[2]; 48 h, read-out: Corrected mortality, 100 mg/L, 48 h
  mortality at 100 µg/mL: 70.4%
[2]; 48 h, read-out: Corrected mortality, 200 mg/L, 48 h
  mortality at 200 µg/mL: 93.6%
[2]; 48 h, read-out: Corrected mortality, 400 mg/L, 48 h
  mortality at 400 µg/mL: 98%
[2]; 72 h, 25 mg/L
  mortality at 25 µg/mL: 17.9%
[2]; 72 h, 50 mg/L
  mortality at 50 µg/mL: 40.6%
[2]; 72 h, 200 mg/L
  mortality at 200 µg/mL: 97.3%
[2]; 72 h, 400 mg/L
  mortality at 400 µg/mL: 100%
[2]; 72 h, read-out: Corrected mortality, 25 mg/L, 72 h
  mortality at 25 µg/mL: 16.3%
[2]; 72 h, read-out: Corrected mortality, 50 mg/L, 72 h
  mortality at 50 µg/mL: 39.5%
[2]; 72 h, read-out: Corrected mortality, 200 mg/L, 72 h
  mortality at 200 µg/mL: 97.2%
[2]; 72 h, read-out: Corrected mortality, 400 mg/L, 72 h
  mortality at 400 µg/mL: 100%
[3]; 25 mg/L
  Number of hatched eggs/7 d: 81 and 92 and 90
  Number of unhatched eggs/7 d: 47 and 36 and 42
[3]; 50 mg/L
  Number of hatched eggs/7 d: 83 and 86 and 78
  Number of unhatched eggs/7 d: 53 and 52
[3]; 100 mg/L
  Number of hatched eggs/7 d: 62 and 72 and 71
  Number of unhatched eggs/7 d: 68 and 60 and 58
[3]; 200 mg/L
  Number of hatched eggs/7 d: 26 and 20 and 23
  Number of unhatched eggs/7 d: 97 and 101 and 103
[3]; 400 mg/L
  Number of hatched eggs/7 d: 12 and 15 and 11
  Number of unhatched eggs/7 d: 113 and 117 and 121
[3]; [4]
  IC50: 91.6 µg/mL (≈ 418 µM)
  IC90: 480 µg/mL (≈ 2190 µM)
